Measurements taken from patent US8377990B2, “Conjugates comprising a psychotropic drug or a GABA agonist and an organic acid and their use in treating pain and other CNS disorders” (Ramot at Tel-Aviv University Ltd., priority 2006, dated 2013).
Entries after “also recorded” stand apart in the source; their conditions may differ.

Legend:
Male Balb-c mice = test: Hot plate test, latency of the nociceptive reaction to heat; type: in vivo; settings: for antinociceptive activity (latency to heat): entire period
Wistar rats = settings: high doses of fluoxetine; Omar et al. Pharmacol. Res. 49 (2004) 119-131; cited from earlier work
[1] = treated orally for 5 consecutive days, AN-214 0.2 mg/kg or equivalent molar dose of AN-216, FIG. 7

NCCCC(=O)O [GABA, γ-aminobutyric acid]
latency in response to heat sensation (Male Balb-c mice; GABA 2.39 mg/kg, >10-folds higher dose than the conjugate, FIG. 6): had no activity | antinociceptive activity (latency to heat) (Male Balb-c mice; GABA orally for 5 consecutive days, three different doses, FIG. 8): No antinociceptive activity was detected

CNCCC(Oc1ccc(C(F)(F)F)cc1)c1ccccc1 (centres unmarked) [fluoxetine]
oedema response in rats (Wistar rats): previously shown to reduce oedema response in rats | antinociceptive effect (latency to heat) during repeated treatment (Male Balb-c mice; repeated oral treatment daily for 11 days, fluoxetine 10 mg/kg or equimolar conjugate, FIGS. 5B-E): significantly better antinociceptive effect compared to untreated animals | response to heat sensation prior to daily treatment (Male Balb-c mice; repeated oral treatment daily for 11 days, fluoxetine 10 mg/kg or equimolar conjugate, tested at days 3, 7, 9 and 11, vs vehicle, FIG. 5A): A delay was noted only on day 11

2-Propyl-pentanoic acid (valproic acid) 4-aminobutyryloxymethyl ester hydrochloride [AN-216]
antinociceptive activity (latency to heat) (Male Balb-c mice; [1]): no antinociceptive activity was detected

CNCCC=C1c2ccccc2CCc2ccccc21 [nortriptyline]
latency of response to heat (Male Balb-c mice; p.o. 0.25 mg/kg nortriptyline or equimolar conjugate (0.32 mg/kg), 4 hours following treatment, vs untreated mice, FIG. 2A): increased significantly the latency of response compared to untreated mice | latency of response to heat, onset (Male Balb-c mice; p.o. 0.5 mg/kg nortriptyline, time course, vs vehicle, FIG. 2B): significant latency, (compared to vehicle treated animals), after 4 hours only | latency of response to heat (Male Balb-c mice; single p.o. dose, 0.5 mg/kg nortriptyline or equimolar dose of conjugate, two hours after administration, FIG. 1, 0.5 mg/kg): significantly less effective; also recorded: did not differ significantly (p>0.05) from control mice | latency of response to heat (Male Balb-c mice; single p.o. dose, 4.5 mg/kg nortriptyline or equimolar dose of conjugate, two hours after administration, vs vehicle, p<0.05, FIG. 1): significant delay in the response compared to control mice

Cl.NCCCC(=O)OCOC(=O)CCCN [AN-214, 4-Amino-butyric acid 4-amino-butyryloxymethyl ester dihydrochloride]
antinociceptive activity (latency to heat) (Male Balb-c mice; [1]): no antinociceptive activity was detected
